From ChEMBL document CHEMBL5143638, “Natural aloe emodin-hybridized sulfonamide aminophosphates as novel potential membrane-perturbing and DNA-intercalating agents against Enterococcus faecalis” (Bioorg Med Chem Lett, 2022)
Values after ≈ are worked out from the molar mass of the structure shown. Active and inactive are the calls of the source. The calls are words filed in the database; no cut-off is given here.

Key:
Staphylococcus aureus [1] = assay: Antibacterial activity against methicillin-resistant Staphylococcus aureus N315 assessed as inhibition of bacterial growth measured after 24 hrs by CLSI based broth microdilution method; format: functional
Staphylococcus aureus [2] = assay: Potency index, ratio of norfloxacin MIC to test compound MIC for antibacterial activity against methicillin-resistant Staphylococcus aureus N315 assessed as inhibition of bacterial growth measured after 24 hrs by CLSI based broth microdilution method; format: functional
Pseudomonas aeruginosa [3] = assay: Antibacterial activity against Pseudomonas aeruginosa assessed as inhibition of bacterial growth measured after 24 hrs by CLSI based broth microdilution method; format: functional
Acinetobacter baumannii = assay: Antibacterial activity against Acinetobacter baumannii assessed as inhibition of bacterial growth measured after 24 hrs by CLSI based broth microdilution method; format: functional
Klebsiella pneumoniae [4] = assay: Antibacterial activity against Klebsiella pneumoniae assessed as inhibition of bacterial growth measured after 24 hrs by CLSI based broth microdilution method; format: functional
Escherichia coli [5] = assay: Antibacterial activity against Escherichia coli assessed as inhibition of bacterial growth measured after 24 hrs by CLSI based broth microdilution method; format: functional
Escherichia coli [6] = assay: Antibacterial activity against Escherichia coli ATCC 25922 assessed as inhibition of bacterial growth measured after 24 hrs by CLSI based broth microdilution method; format: functional
Enterococcus faecalis [7] = assay: Antibacterial activity against Enterococcus faecalis assessed as inhibition of bacterial growth measured after 24 hrs by CLSI based broth microdilution method; format: functional
Staphylococcus aureus [8] = assay: Antibacterial activity against Staphylococcus aureus ATCC 25923 assessed as inhibition of bacterial growth measured after 24 hrs by CLSI based broth microdilution method; format: functional
Staphylococcus aureus [9] = assay: Antibacterial activity against Staphylococcus aureus assessed as inhibition of bacterial growth measured after 24 hrs by CLSI based broth microdilution method; format: functional
Pseudomonas aeruginosa [10] = assay: Antibacterial activity against Pseudomonas aeruginosa ATCC 27853 assessed as inhibition of bacterial growth measured after 24 hrs by CLSI based broth microdilution method; format: functional
Enterococcus faecalis [11] = assay: Induction of intracellular ROS production in Enterococcus faecalis assessed as fold increase in intracellular ROS level at 0.25 ug/ml incubated for 6 hrs by DCFH-DA assay relative to control; format: functional; conditions: dose 0.25 µg/ml
Calf thymus DNA [12] = assay: Binding affinity to calf thymus DNA assessed as DNA intercalation by neutral red dye uptake method; format: nucleic-acid assay; conditions: Bos taurus
Cell membrane [13] = assay: Induction of membrane damage in Enterococcus faecalis assessed as increase in protein leakage measured after 6 hrs by Bradford assay; format: subcellular; conditions: DDE = dose-dependent effect
Enterococcus faecalis [14] = assay: Bactericidal activity against Enterococcus faecalis assessed as reduction in colony forming units at 4 times MIC measured after 1.5 to 6 hrs by time-kill kinetics assay; format: functional; conditions: time 1.5-6 hrs
Cell membrane [15] = assay: Disruption of membrane integrity in Enterococcus faecalis assessed as membrane damage by measuring PI-DNA complex formation at 2 times MIC incubated for 20 to 200 mins by PI staining based analysis; conditions: time 20-200 min, TDE = time-dependent effect
Cell membrane [16] = assay: Induction of membrane depolarization in Enterococcus faecalis assessed as increase in fluorescence intensity at 1 times MIC measured after 10 to 60 mins by diSC35 dye based fluorescence assay; format: subcellular; conditions: time 10-60 min, TDE = time-dependent effect
Enterococcus faecalis [17] = assay: Antibiofilm activity against Enterococcus faecalis assessed as reduction in biofilm formation at upto 8 times MIC measured after 24 hrs by crystal violet staining based analysis relative to control; format: functional; set-up: scale not given: the % may be the effect or the level left
Erythrocyte [18] = assay: Hemolytic activity in human RBC assessed as morphological changes at 512 ug/ml incubated for 2 hrs by microscopic analysis; format: toxicity, cell-based; conditions: dose 512 µg/ml
Erythrocyte [19] = assay: Hemolytic activity in human RBC at 512 ug/ml incubated for 2 hrs by microplate reader analysis; format: toxicity, cell-based; conditions: dose 512 µg/ml
Cell membrane [20] = assay: Disruption of membrane integrity in Escherichia coli ATCC 25922 assessed as membrane damage by measuring PI fluorescence at 1 to 8 times MIC incubated for 8 hrs by PI staining based analysis; format: subcellular
Cell membrane [21] = assay: Disruption of membrane integrity in Enterococcus faecalis assessed as membrane damage by measuring PI fluorescence at 1 to 8 times MIC incubated for 8 hrs by PI staining based analysis; format: subcellular
Calf thymus DNA [22] = assay: Binding affinity to calf thymus DNA assessed as compound-DNA complex formation by measuring hypochromic shift by UV-visible absorption spectrophotometric method; format: nucleic-acid assay; conditions: Bos taurus
Enterococcus faecalis [23] = assay: Antibiofilm activity against Enterococcus faecalis assessed as reduction in biofilm formation at MIC measured after 24 hrs by crystal violet staining based analysis relative to control; format: functional; set-up: scale not given: the % may be the effect or the level left
Enterococcus faecalis [24] = assay: Induction of intracellular ROS production in Enterococcus faecalis assessed as fold increase in intracellular ROS level at 2 ug/ml incubated for 6 hrs by DCFH-DA assay relative to control; format: functional; conditions: dose 2 µg/ml
Cell membrane [25] = assay: Disruption of membrane integrity in Enterococcus faecalis assessed as membrane damage by measuring increase in red fluorescence at 2 to 8 times MIC incubated for 8 hrs by PI staining based fluorescence microscopic analysis; format: subcellular
Klebsiella pneumoniae [26] = assay: Potency index, ratio of sulfamethoxazole MIC to test compound MIC for antibacterial activity against Klebsiella pneumoniae assessed as inhibition of bacterial growth measured after 24 hrs by CLSI based broth microdilution method; format: functional
Klebsiella pneumoniae [27] = assay: Potency index, ratio of norfloxacin MIC to test compound MIC for antibacterial activity against Klebsiella pneumoniae assessed as inhibition of bacterial growth measured after 24 hrs by CLSI based broth microdilution method; format: functional
Staphylococcus aureus [28] = assay: Potency index, ratio of sulfamethoxazole MIC to test compound MIC for antibacterial activity against Staphylococcus aureus assessed as inhibition of bacterial growth measured after 24 hrs by CLSI based broth microdilution method; format: functional
Staphylococcus aureus [29] = assay: Potency index, ratio of sulfamethoxazole MIC to test compound MIC for antibacterial activity against Staphylococcus aureus ATCC 25923 assessed as inhibition of bacterial growth measured after 24 hrs by CLSI based broth microdilution method; format: functional
Klebsiella pneumoniae [30] = assay: Potency index, ratio of aloe emodin MIC to test compound MIC for antibacterial activity against Klebsiella pneumoniae assessed as inhibition of bacterial growth measured after 24 hrs by CLSI based broth microdilution method; format: functional
Staphylococcus aureus [31] = assay: Potency index, ratio of sulfisoxazole MIC to test compound MIC for antibacterial activity against Staphylococcus aureus assessed as inhibition of bacterial growth measured after 24 hrs by CLSI based broth microdilution method; format: functional
Staphylococcus aureus [32] = assay: Potency index, ratio of norfloxacin MIC to test compound MIC for antibacterial activity against Staphylococcus aureus assessed as inhibition of bacterial growth measured after 24 hrs by CLSI based broth microdilution method; format: functional

Row | Compound | MIC (Staphylococcus aureus [1]) [µg/mL] | MIC (Pseudomonas aeruginosa [3]) [µg/mL] | MIC (Acinetobacter baumannii) [µg/mL] | MIC (Klebsiella pneumoniae [4]) [µg/mL] | MIC (Escherichia coli [5]) [µg/mL] | MIC (Escherichia coli [6]) [µg/mL] | MIC (Enterococcus faecalis [7]) [µg/mL] | MIC (Staphylococcus aureus [8]) [µg/mL] | MIC (Staphylococcus aureus [9]) [µg/mL] | MIC (Pseudomonas aeruginosa [10]) [µg/mL] | other results
1 | CCOP(=O)(OCC)C(Nc1ccc(S(=O)(=O)Nc2ccccn2)cc1)c1cc(O)c2c(c1)C(=O)c1cccc(O)c1C2=O (stereo not drawn) | 2 (≈ 3.14 µM) | 256 (≈ 402 µM) | 128 (≈ 201 µM) | 256 (≈ 402 µM) | 256 (≈ 402 µM) | 256 (≈ 402 µM) | 64 (≈ 100 µM) | 128 (≈ 201 µM) | 64 (≈ 100 µM) | 64 (≈ 100 µM) | Ratio (Staphylococcus aureus [2]): 4
2 | CCOP(=O)(OCC)C(Nc1ccc(S(=O)(=O)Nc2ncccn2)cc1)c1cc(O)c2c(c1)C(=O)c1cccc(O)c1C2=O (stereo not drawn) | 8 (≈ 12.5 µM) | 8 (≈ 12.5 µM) | 16 (≈ 25.1 µM) | 0.5 (≈ 0.783 µM) | 2 (≈ 3.13 µM) | 0.25 (≈ 0.391 µM) | 0.25 (≈ 0.391 µM) | 2 (≈ 3.13 µM) | 128 (≈ 200 µM) | 0.25 (≈ 0.391 µM) | fold change (FC) (Enterococcus faecalis [11]): 1.2; Activity (Calf thymus DNA [12]): Active; Activity (Cell membrane [13]): Dde; Activity (Enterococcus faecalis [14]): 3 log10CFU/ml; Activity (Cell membrane [15]): Tde; Activity (Cell membrane [16]): Tde; Activity (Enterococcus faecalis [17]): <=79%; Activity (Erythrocyte [18]): Non-Toxic; Activity (Erythrocyte [19]): Non-Toxic; Activity (Cell membrane [20]): Active; Activity (Cell membrane [21]): Active; Activity (Calf thymus DNA [22]): Active; Activity (Enterococcus faecalis [23]): 30%; fold change (FC) (Enterococcus faecalis [24]): 2.4; Activity (Cell membrane [25]): Active
3 | CCOP(=O)(OCC)C(Nc1ccc(S(=O)(=O)Nc2cc(C)on2)cc1)c1cc(O)c2c(c1)C(=O)c1cccc(O)c1C2=O (stereo not drawn) | 64 (≈ 99.8 µM) | 32 (≈ 49.9 µM) | 64 (≈ 99.8 µM) | 2 (≈ 3.12 µM) | 64 (≈ 99.8 µM) | 32 (≈ 49.9 µM) | 256 (≈ 399 µM) | 0.5 (≈ 0.779 µM) | 0.5 (≈ 0.779 µM) | 32 (≈ 49.9 µM) | Ratio (Klebsiella pneumoniae [26]): 4; Ratio (Klebsiella pneumoniae [27]): 2; Ratio (Staphylococcus aureus [28]): 16; Ratio (Staphylococcus aureus [29]): 64; Ratio (Klebsiella pneumoniae [30]): 32
4 | CCCCOP(=O)(OCCCC)C(Nc1ccc(S(=O)(=O)Nc2onc(C)c2C)cc1)c1cc(O)c2c(c1)C(=O)c1cccc(O)c1C2=O (stereo not drawn) | 64 (≈ 89.9 µM) | 8 (≈ 11.2 µM) | 8 (≈ 11.2 µM) | 16 (≈ 22.5 µM) | 256 (≈ 360 µM) | 8 (≈ 11.2 µM) | 128 (≈ 180 µM) | 2 (≈ 2.81 µM) | 4 (≈ 5.62 µM) | 256 (≈ 360 µM) | Ratio (Staphylococcus aureus [31]): 4; Ratio (Staphylococcus aureus [32]): 2
5 | CCOP(=O)(OCC)C(Nc1ccc(S(=O)(=O)Nc2onc(C)c2C)cc1)c1cc(O)c2c(c1)C(=O)c1cccc(O)c1C2=O (stereo not drawn) | 16 (≈ 24.4 µM) | 256 (≈ 390 µM) | 256 (≈ 390 µM) | 256 (≈ 390 µM) | 256 (≈ 390 µM) | 256 (≈ 390 µM) | 256 (≈ 390 µM) | 256 (≈ 390 µM) | 256 (≈ 390 µM) | 256 (≈ 390 µM) | 
6 | O=C1c2cccc(O)c2C(=O)c2c(O)cc(C(Nc3ccc(S(=O)(=O)Nc4nccs4)cc3)P(=O)(Oc3ccccc3)Oc3ccccc3)cc21 (stereo not drawn) | 64 (≈ 86.5 µM) | 32 (≈ 43.3 µM) | 64 (≈ 86.5 µM) | 128 (≈ 173 µM) | 128 (≈ 173 µM) | 64 (≈ 86.5 µM) | 64 (≈ 86.5 µM) | 256 (≈ 346 µM) | 64 (≈ 86.5 µM) | 128 (≈ 173 µM) | 
